Results from patent US20040162247A1, “Therapeutic agent or osteoporosis comprising an active ingredient of quercetin derivatives” (priority 2000, published 2004).
Values joined by “and” are separate entries in the source; they are usually repeats but may differ in a detail not shown here. Equal values may be shown once.

What was measured:
[1] = tested on: ovariectomized rats; assay: Trabecular bone area of tibia in ovariectomized rats;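 on Change Rate (%) of TBA of tibia, of control group: control group rats were ovariectomized and are not the sham group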; type: in vivo, Female SD (Sprague-Dawley) rats; conditions: OVX rats, 9 weeks i.p. (E2 1 μg/kg/day; quercetin, genistein 10 mg/kg/day)
Experimental: (§1) Trabecular bone area (TBA) of lumbar and tibia removed from the rats of each group which was treated with various agents for 9 weeks were measured as follows: that is, using a digitalizer of quantitative image analysis system (Wild Leitz Co.), image of each trabecula was obtained on computer monitor by drawing a contour of the trabecula, and then, using a computer, calculated were average areas of trabeculae within a rectangle of 2×10^6 μm^2 area wherein the width is about ⅔ of the length of growth plate which located underneath of growth plate at proximity of tibia. Also, following the number of trabeculae within the rectangle were obtained, average area was multiplied by the number of trabeculae to obtain trabecular bone area of each sample bone, which was analyzed statistically (see: Table 5).

[2] = tested on: ovariectomized rats; assay: Trabecular bone area of lumbars in ovariectomized rats;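 on Change Rate (%) of TBA of lumbars, of control group: control group rats were ovariectomized and are not the sham group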; type: in vivo, Female SD (Sprague-Dawley) rats; conditions: OVX rats, 9 weeks i.p. (E2 1 μg/kg/day; quercetin, genistein 10 mg/kg/day)
Experimental: as §1
TBAs of lumbars removed from the animal treated with test agents for 9 weeks were measured employing the same method above (see: Table 6).

[3] = rat, in vivo
Experimental: Female SD (Sprague-Dawley) rats, a model animal for type I osteoporosis occurring after menopause were employed for evaluating pharmacological effectiveness of quercetin. Female rats (10 weeks old) weighing 200 to 300 g, obtained from the Korea Research Institute of Chemical Technology were employed as experimental animals. Experiment was carried out by the procedure which comprises removing ovary, administration of agents to the each group of rats, and at certain days after ovariectomy, the rats were sacrificed and subjected to analyses including measurement of body weight, examination of internal organs, measurement of trabecular bone area, complete blood count, and biochemical analyses of plasma.
The Sham group, animals operated upon for the surgery as in the ovariectomized rats except for removing ovary, were employed to compare the changes caused solely by ovariectomy in control group which were ovariectomized but no agent was administered. Control group was employed to compare the changes caused by administration of agents in test group which were ovariectomized and administered with testing agents.
During the period of administration, blood was sampled once a week. After 9-week administration, entire blood was withdrawn with heparin treatment. Following complete blood count (CBC), the blood was centrifuged at 3,000 rpm for 20 minutes to obtain plasma which was stored at −70° C. until use. For measurement of bone mineral density, the lumbar spine L5 and L6, and right tibia were removed and stored separately in 4% (v/v) formalin solution.

[4] = tested on: ovariectomized rats; assay: Complete blood count in ovariectomized rats; type: in vivo, Female SD (Sprague-Dawley) rats; conditions: rat, in vivo
Experimental: (§2) When test agents were administered, for a certain period of time before and after administration, 1.5 ml of blood was sampled from tail vein using a catheter (B.D Co.: 24 G) and subjected to complete blood count (Coulter Co.: JT) and biochemical analyses of plasma (Crone Co.: Airon® 200). During autopsy, blood was sampled from caudal venae cavae and subjected to the analyses above. And then, each sample was frozen to store for measurement of trabecular bone area of femur and examination of internal organs.
Complete blood count which reflects the condition and abnormality of the body was measured to find out abnormality in test animals caused by administrtion of agents. That is, to find out changes in hematopoiesis of test rats, measured were red blood cell (RBC) count, concentration of hemoglobin (Hb) and hematocrit (Ht) of-blood samples obtained from the rats prior to operation and the rats 10 weeks after administrating agents following operation, and to find out changes in immune system such as inflammation and necrosis of tissues, measured were white blood cell count, lymphocyte count, monocyte count, and granulocyte count (see: Table 7).

[5] = tested on: ovariectomized rats; assay: Biochemical parameters in plasma of ovariectomized rats; type: in vivo, Female SD (Sprague-Dawley) rats; conditions: rat, in vivo
Experimental: as §2
Since blood reflects the condition of body, safety of quercetin in the body was evaluated by measuring biochemical parameters: that is, blood samples were obtained from the rat prior to operation, one week after operation, and 10 weeks after operation, and measured were levels of alkaline phosphatase (ALP), calcium, inorganic phosphate, blood urea nitrogen (BUN), creatinin, total cholesterol, HDL-cholesterol and LDL-cholesterol (see: Table 8).

Weight [3]: 228.51 ± 8.11 g
Concentration of hemoglobin(Hb) [4]: 15.86 ± 0.24 g/dL
Hematocrit(Ht) [4]: 43.11 ± 0.55%
Lymphocyte and granulocyte count, before versus after operation (in words) [4]: rapid decrease
Lymphocyte count [4]: 17.80 ± 1.72 ×10^3 cells/μl
Red blood cell(RBC) count [4]: 7.33 ± 0.13 ×10^6 cells/μl
White blood cell count [4]: 23.14 ± 1.50 ×10^3 cells/μl
White blood cell count, before versus after operation (in words) [4]: decreased
Concentration of ALP in plasma [5]: 196.01 ± 28.34 U/dL
Concentration of HDL-cholesterol in plasma [5]: 52.30 ± 2.01 mg/dL
Concentration of LDL-cholesterol in plasma [5]: 24.49 ± 1.63 mg/dL
Concentration of blood urea nitrogen (BUN) [5]: 18.36 ± 1.01 mg/dL
Concentration of calcium in plasma [5]: 10.86 ± 0.40 mg/dL
Concentration of creatinin in plasma [5]: 0.55 ± 0.05 mg/dL
Concentration of inorganic phosphate in plasma [5]: 6.90 ± 0.52 mg/dL
Concentration of total cholesterol in plasma [5]: 76.79 ± 2.80 mg/dL
SMILES: C[C@]12CC[C@@H]3c4ccc(O)cc4CC[C@H]3[C@@H]1CC[C@@H]2O [E2, 17β-estradiol]
TBA (trabecular bone area) of tibia [1]: 51.40 ± 2.28 ×10^4 μm^2
Change Rate (%) of TBA of tibia, of control group ([1]; control group = 100): 148% and 148.46 ± 6.59%
TBA (trabecular bone area) of lumbars [2]: 89.16 ± 2.83 ×10^4 μm^2
Change Rate (%) of TBA of lumbars, of control group ([2]; control group = 100): 132% and 132.04 ± 4.19 %
